Assay results taken from patent publication US20250345433A1, “Drug For Treating Disorders Of An Organ Or Tissue Function And Diseases Accompanied By Such Disorders, And The Method For Obtaining It” (priority 2018, published 2025).

Experiments:
[1] = system: male Wistar rats with hemorrhagic stroke; test: Hemorrhagic stroke (intracerebral hemorrhage) model in rats; type: in vivo, rat
Description: In the study, male Wistar rats (180-200 g) were used. […] Drug administration was started 1 hour after the pathology simulation and then daily, not earlier than 1 hour before the behavioral tests.
This method involves the double introduction of autologous blood into the specified structure of the brain of animals. The hemorrhagic stroke simulated in this way in rats in localization corresponds to intracerebral hemorrhages that occur in humans when the lenticularity arteries rupture. The total volume of hematoma in animals corresponds to approximately 40-50 ml in terms of human body weight.

[2] = system: children with hyperactivity; test: ADHD/hyperkinetic disorder in children vs. Piracetam (SNAP-IV, TOVA, fine motor); type: in vivo, human
Description: Materials and methods of examination. The study included 57 children aged 6 to 9 years (40 boys and 17 girls) who attended day care centers and elementary schools of secondary schools.
• 1. The presence of clinical signs of hyperactivity that meet the criteria of ICD-10 (F 90); 2. Age-6-9 years; • 3. Intellectual indicators are not lower than the average on the Wechsler scale (more than 90 points).
Children with behavioral disorders due to other mental disorders were excluded from the study. For 2 months, the main group of children (n=30) with clinical signs of GH received monotherapy for the claimed medicament in 2 tablet 3 times a day. Children from the control group, similar to the main group by clinical signs, sex and age (n=27), were administered Piracetam in standard age doses for the same period.
The assessment of the severity of GH according to the criteria of attention disorder, hyperactivity and impulsivity in the examined children was carried out using the SNAP-IV scale (Swanson J., 1992). The psychophysiological test TOVA (The Test of Variables of Attention), allowed to assess the degree of attention disorders (omissions of significant stimuli) and impulsivity (false presses of a button), information processing speed (reaction time) in relation to standard indicators (Greenberg F M, Waldman I D, 1993). The child's fine motor skills were evaluated using tests from the battery of A. R. Luria (1973), selected by testing on these age groups with the development of criteria for scoring points Zh. M. Glozman, et al. (2006).
The results of the study. At the first stage of the study, using the SNAP-IV scale (Swanson J., 1992) in children of the main and control groups, an initial assessment of the severity of GH was carried out separately for each of the criteria (attention disorder, hyperactivity and impulsivity). Repeated similar assessment was carried out after a two-month course of therapy with the declared Drug in the main group and Piracetam therapy in the control group. The obtained indicators were compared with statistical processing (Table 28).
The computer-aided testing of TOVA (“Test of Variables of Attention”) was represented by three groups of tests, which allow judging the degree of attention disorder (missing significant stimuli), impulsivity (false pressing a button), information processing speed (reaction time). Baseline indicators of children with GH before treatment were compared with those of children of the main group (treatment with the claimed Drug) and indicators of children of the control group (Piracetam therapy) after a two-month course of treatment.

SMILES	decrease of the area of the hemorrhagic lesion ([1]; 7th day compared with the 3rd day) [%]	total time spent in the dark compartment, passive avoidance reaction, M (QI; Q3) ([1]; 7th day of the study)	difference in motor preference indices ([1]; compared to negative test (Preparation 4)) [%]	children with increase in disinhibition, excitability ([2]; 2 months) [%]	children with sleep disturbance ([2]; 2 months) [%]	number of children with increase in disinhibition, excitability ([2]; 2 months, n = 27)	number of children with sleep disturbance ([2]; 2 months, n = 27)	TOVA false alarm ([2]; First half of the test, after treatment, before 15.3 ± 2.2) [%]	TOVA Omissions of significant incentives ([2]; First half of the test, after treatment, before 19.1 ± 2.4) [%]	TOVA response time ([2]; First half of the test, after treatment, before 795 ± 103) [ms]	TOVA false alarm ([2]; The second half of the test, after treatment, before 29.2 ± 3.3) [%]	TOVA Omissions of significant incentives ([2]; The second half of the test, after treatment, before 29.5 ± 3.3) [%]	TOVA response time ([2]; The second half of the test, after treatment, before 741 ± 126) [ms]	Total mark of fine motor quality ([2]; after treatment, before 2.24 ± 0.21)	SNAP-IV impulsivity ([2]; after two-month treatment, before 2.40 ± 0.28)	SNAP-IV hyperactivity ([2]; after two-month treatment, before 2.64 ± 0.29)	SNAP-IV disorder of attention ([2]; after two-month treatment, before 2.76 ± 0.31)
COCCOC(=O)C1=C(C)NC(C)=C(C(=O)OC(C)C)C1c1cccc([N+](=O)[O-])c1 (centres unmarked) [Nimodipine, nimodipine]	16.7	171.00 (163.00; 175.00) s	24.22														
NC(=O)CN1CCCC1=O [Piracetam]				11.1	26	3	7	12.6 ± 3.1	13.5 ± 1.4	745 ± 87	20.5 ± 2.9	16.9 ± 2.9	665 ± 77	1.62 ± 0.16	2.36 ± 0.20	2.46 ± 0.11	2.52 ± 0.13
